Data set [1] has as its system mice. In words: Toxicity and adverse effects noted (comments), mice. The class given is in vivo, mouse. The note with it: at 32 mg./kg. The source says:
(§1) The tabulated test results include comments regarding toxicity and adverse effects noted with certain compounds.

Data set [2] relates to mice. In words: animal or person. The class given is in vivo, mouse. The settings on record: ip.
Data set [3] relates to mice. The settings on record: mouse, in vivo, ip.
Data set [4] deals with Rats. Set-up: Rat Jump .5 hr (current at which the animal first jumps) / Rat Jump .5 hr, second value printed in parentheses / Rat Jump 2 hr (current at which the animal first jumps): unit not given here. The settings on record: in vivo, ip.
Data set [5] has as its system mice. The settings on record: mouse, in vivo, ip. This is another data set of the same source.
In data set [6] the test system is Rats. In words: Toxicity and adverse effects noted (comments), rats. The class given is in vivo, rat. The note with it: for loss of righting reflex (rats): at 100 mg./kg.
Text: as §1

A short description of data set [7]: Analgesic and tranquilizing effectiveness, summary of Examples 10 and 11. The class given is in vivo.
Data set [8] is described as follows: Toxicity and adverse effects noted (comments), species not stated. The note with it: at 100 mg./kg. The class given is in vivo.
Text: as §1

Data set [9] relates to Rats. The note with it: rat, in vivo, ip.

Regarding `COc1ccc(Cl)c2c1CCC(CN1CCC(C(=O)N3CCCC3)CC1)=C2`, the mice died with mice [1] is recorded as 1/5. In the data set on mice [2] (mouse, in vivo), the “Tail Pinch 2 hr (percentage of mice showing analgesia)” value was 0 and the “Tail Pinch .5 hr (percentage of mice showing analgesia)” value was 0. In the data set on mice [3], the “Tail Flick 2 hr (percentage of analgesia response)” value was 0 and the “Tail Flick .5 hr (percentage of analgesia response)” value came out at 25. Besides, in the data set with Rats [4], the “Rat Jump 2 hr (current at which the animal first jumps)” value (“Rat Jump 2 hr” for short) is recorded as 1.2 and the “Rat Jump .5 hr (current at which the animal first jumps)” value turned out to be 1.2. In the data set on mice [5], the “Hot Plate 2 hr (percentage of mice showing analgesia)” value was determined as 0 and the “Hot Plate .5 hr (percentage of mice showing analgesia)” value worked out at 25.

`COc1ccc(Cl)c2c1CCC(CN1CCC(C(=O)N3CCCCC3)CC1)=C2`: in the data set on mice [2] (mouse, in vivo), the “Tail Pinch 2 hr (percentage of mice showing analgesia)” value is on record as 0 and the “Tail Pinch .5 hr (percentage of mice showing analgesia)” value is on record as 0. Besides, in the data set on mice [3], the “Tail Flick 2 hr (percentage of analgesia response)” value worked out at 0 and the “Tail Flick .5 hr (percentage of analgesia response)” value is on record as 40. In the data set on Rats [4], the “Rat Jump 2 hr” value was found to be 1.2 and the “Rat Jump .5 hr (current at which the animal first jumps)” value is given as 1.6. Further, in the data set with mice [5], the “Hot Plate 2 hr (percentage of mice showing analgesia)” value was found to be 0 and the “Hot Plate .5 hr (percentage of mice showing analgesia)” value is 20. Moreover, the “loss of righting reflex (rats)” value in the data set with Rats [6] is recorded as 2/5.

On to `COc1ccc(Cl)c2c1CCC(CN1CCC(NC(=O)N3CCCCC3)CC1)=C2`, for which, in the data set on mice [2] (mouse, in vivo), the “Tail Pinch 2 hr (percentage of mice showing analgesia)” value came to 0 and the “Tail Pinch .5 hr (percentage of mice showing analgesia)” value is 0. In addition, in the data set with mice [3], the “Tail Flick 2 hr (percentage of analgesia response)” value is on record as 0 and the “Tail Flick .5 hr (percentage of analgesia response)” value was 0. In the data set with Rats [4], the “Rat Jump 2 hr” value turned out to be 1.2 and the “Rat Jump .5 hr (current at which the animal first jumps)” value is 1.2. In the data set on mice [5], the “Hot Plate 2 hr (percentage of mice showing analgesia)” value turned out to be 0 and the “Hot Plate .5 hr (percentage of mice showing analgesia)” value is reported as 0. Further, in the data set on Rats [6], the “loss of righting reflex (rats)” value is given as 1/5.

Regarding `COc1ccc(Cl)c2c1CCC(CNCC1CC1)=C2`, in the data set with mice [2] (mouse, in vivo), the “Tail Pinch 2 hr (percentage of mice showing analgesia)” value is 0 and the “Tail Pinch .5 hr (percentage of mice showing analgesia)” value was found to be 40. For the same compound, in the data set with mice [3], the “Tail Flick 2 hr (percentage of analgesia response)” value is 0 and the “Tail Flick .5 hr (percentage of analgesia response)” value came out at 20. In the data set on Rats [4], the “Rat Jump 2 hr” value came to 1.2 and the “Rat Jump .5 hr (current at which the animal first jumps)” value is reported as 1.2. In addition, in the data set on mice [5], the “Hot Plate 2 hr (percentage of mice showing analgesia)” value is reported as 10 and the “Hot Plate .5 hr (percentage of mice showing analgesia)” value turned out to be 40. Further, the rats died with Rats [6] (at 32 mg./kg.) was 1/5.

`COc1ccc(Cl)c2c1CCC(CN(C)CCN1CCCC1)=C2`: in the data set with mice [2] (mouse, in vivo), the “Tail Pinch 2 hr (percentage of mice showing analgesia)” value worked out at 0 and the “Tail Pinch .5 hr (percentage of mice showing analgesia)” value was 0. Further, in the data set with mice [3], the “Tail Flick 2 hr (percentage of analgesia response)” value stood at 0 and the “Tail Flick .5 hr (percentage of analgesia response)” value is 0. In addition, in the data set on Rats [4], the “Rat Jump 2 hr” value is reported as 1.2 and the “Rat Jump .5 hr (current at which the animal first jumps)” value was 1.2. For the same compound, in the data set on mice [5], the “Hot Plate 2 hr (percentage of mice showing analgesia)” value is listed as 0 and the “Hot Plate .5 hr (percentage of mice showing analgesia)” value was found to be 0.

As for `COc1ccc(Cl)c2c1CCC(CN1CC=C(c3ccc(Cl)cc3)CC1)=C2`, in the data set with mice [2] (mouse, in vivo), the “Tail Pinch 2 hr (percentage of mice showing analgesia)” value is reported as 0 and the “Tail Pinch .5 hr (percentage of mice showing analgesia)” value stood at 0. In the data set with mice [3], the “Tail Flick 2 hr (percentage of analgesia response)” value was 0 and the “Tail Flick .5 hr (percentage of analgesia response)” value is listed as 0. Moreover, in the data set with Rats [4], the “Rat Jump 2 hr” value came to 1.2 and the “Rat Jump .5 hr (current at which the animal first jumps)” value came out at 1.2. In the data set on mice [5], the “Hot Plate 2 hr (percentage of mice showing analgesia)” value is on record as 0 and the “Hot Plate .5 hr (percentage of mice showing analgesia)” value amounted to 0.

Consider `COc1ccc(Cl)c2c1CCC(CN1CCSC1)=C2`, for which, in the data set with mice [2] (mouse, in vivo), the “Tail Pinch 2 hr (percentage of mice showing analgesia)” value worked out at 0 and the “Tail Pinch .5 hr (percentage of mice showing analgesia)” value is on record as 0. Further, in the data set with mice [3], the “Tail Flick 2 hr (percentage of analgesia response)” value is reported as 0 and the “Tail Flick .5 hr (percentage of analgesia response)” value was 0. In the data set with Rats [4], the “Rat Jump 2 hr” value turned out to be 1.2 and the “Rat Jump .5 hr (current at which the animal first jumps)” value is recorded as 1.2. Also, in the data set with mice [5], the “Hot Plate 2 hr (percentage of mice showing analgesia)” value is on record as 0 and the “Hot Plate .5 hr (percentage of mice showing analgesia)” value was 0.

As for `COc1ccc(Cl)c2c1CCC(CN1CCC(OC(C)=O)(c3ccccc3)CC1)=C2` [1-(2-[8-Chloro-5-methoxy-3,4-dihydronaphthyl]methyl)-4-acetoxy-4-phenylpiperidine], in data set [7], the “analgesic and tranquilizing effectiveness” value is “outstanding effectiveness”.

Regarding `COc1ccc(Cl)c2c1CCC(CN(C)C)=C2` [N(CH3)2], in the data set with mice [2] (mouse, in vivo), the “Tail Pinch 2 hr (percentage of mice showing analgesia)” value came to 0 and the “Tail Pinch .5 hr (percentage of mice showing analgesia)” value stood at 0. In addition, in the data set on mice [3], the “Tail Flick 2 hr (percentage of analgesia response)” value is on record as 0 and the “Tail Flick .5 hr (percentage of analgesia response)” value is given as 0. In addition, in the data set with Rats [4], the “Rat Jump 2 hr” value turned out to be 0.6 and the “Rat Jump .5 hr (current at which the animal first jumps)” value was 1.2. Further, in the data set on mice [5], the “Hot Plate 2 hr (percentage of mice showing analgesia)” value is 0 and the “Hot Plate .5 hr (percentage of mice showing analgesia)” value was found to be 0.

For orientation: ED50 means the midpoint of the dose-response relation. Take `CCC(=O)O[C@](Cc1ccccc1)(c1ccccc1)[C@H](C)CN(C)C` [d-Propoxyphene, reference compound]: the ED50 in the data set on mice [2] (Mus musculus, read-out: Tail Pinch ED50) came to 11.5 mg/kg. Besides, in the data set on mice [3], the “Tail Flick 2 hr (percentage of analgesia response)” value amounted to 20 and the “Tail Flick .5 hr (percentage of analgesia response)” value is on record as 40. Also, in the data set with Rats [4], the “Rat Jump .5 hr (current at which the animal first jumps)” value is given as 1.2. Moreover, in the data set on mice [5], the “Hot Plate 2 hr (percentage of mice showing analgesia)” value came to 0 and the “Hot Plate .5 hr (percentage of mice showing analgesia)” value was 60. In addition, the toxicity entry in data set [8] is on record as “toxic”.

As for `COc1ccc(Cl)c2c1CCC(CN1CCC(OC(C)=O)(c3ccccc3)CC1)=C2` [drawing 79], in the data set with mice [2] (mouse, in vivo), the “Tail Pinch 2 hr (percentage of mice showing analgesia)” value is 100 and the “Tail Pinch .5 hr (percentage of mice showing analgesia)” value was 100. Also, in the data set on mice [3], the “Tail Flick 2 hr (percentage of analgesia response)” value stood at 70 and the “Tail Flick .5 hr (percentage of analgesia response)” value is listed as 90. Also, in the data set with Rats [4], the “Rat Jump 2 hr” value was above 2.2 and the “Rat Jump .5 hr (current at which the animal first jumps)” value is above 2.2. Also, in the data set on mice [5], the “Hot Plate 2 hr (percentage of mice showing analgesia)” value is reported as 80 and the “Hot Plate .5 hr (percentage of mice showing analgesia)” value is listed as 100.

Turning to `COc1ccc(Cl)c2c1CCC(CN1CCCC1)=C2` [pyrrolidino, 1-(2-[3,4-Dihydro-8-chloro-5-methoxynaphthyl]methyl)pyrrolidine], in the data set on mice [2] (mouse, in vivo), the “Tail Pinch 2 hr (percentage of mice showing analgesia)” value came to 0 and the “Tail Pinch .5 hr (percentage of mice showing analgesia)” value is given as 20. In the data set with mice [3], the “Tail Flick 2 hr (percentage of analgesia response)” value is on record as 0 and the “Tail Flick .5 hr (percentage of analgesia response)” value is recorded as 60. Moreover, in the data set with Rats [4], the “Rat Jump 2 hr” value is reported as 2.2; the “Rat Jump .5 hr (current at which the animal first jumps)” value was determined as 1.2; the “Rat Jump .5 hr, second value printed in parentheses” value was 2.2. Moreover, in the data set on mice [5], the “Hot Plate 2 hr (percentage of mice showing analgesia)” value is 0 and the “Hot Plate .5 hr (percentage of mice showing analgesia)” value was found to be 80.

Take Codeine Sulfate [reference compound]: the “Amphetamine Antagonism Activity (dosage approximately neutralizing the amphetamine effect)” value in the data set with Rats [9] is above 32 mg/kg. In addition, in the data set with mice [2] (mouse, in vivo), the “Tail Pinch ED50” value stood at 15.4 mg/kg. In the data set on mice [3], the “Tail Flick 2 hr (percentage of analgesia response)” value was found to be 50 and the “Tail Flick .5 hr (percentage of analgesia response)” value came out at 100. Moreover, the “Rat Jump .5 hr (current at which the animal first jumps)” value with Rats [4] was above 2.2. In the data set on mice [5], the “Hot Plate 2 hr (percentage of mice showing analgesia)” value worked out at 60 and the “Hot Plate .5 hr (percentage of mice showing analgesia)” value came out at 80.
